From ChEMBL document CHEMBL3352819, “Structure-based optimization and biological evaluation of trisubstituted pyrazole as a core structure of potent ROS1 kinase inhibitors” (Bioorg Med Chem, 2014)

What was measured:
[1] = molecular target: Proto-oncogene tyrosine-protein kinase ROS (Homo sapiens, UniProt P08922); assay: Inhibition of ROS1 (unknown origin) assessed as remaining activity
[2] = molecular target: Receptor-type tyrosine-protein kinase FLT3 (Homo sapiens) (UniProt P36888); assay: Inhibition of FLT3 (unknown origin) assessed as residual activity at 10 uM relative to control
[3] = molecular target: Non-receptor tyrosine-protein kinase TNK1 (Homo sapiens) (UniProt Q13470); assay: Inhibition of TNK1 (unknown origin) assessed as residual activity at 10 uM relative to control
[4] = molecular target: Non-receptor tyrosine-protein kinase TYK2 (Homo sapiens) (UniProt P29597); assay: Inhibition of TYK2 JH1 domain catalytic (unknown origin) assessed as residual activity at 10 uM relative to control
[5] = molecular target: BMP-2-inducible protein kinase (Homo sapiens) (UniProt Q9NSY1); assay: Inhibition of BIKE (unknown origin) assessed as residual activity at 10 uM relative to control
BMP-2-inducible protein kinase (Homo sapiens), sequence (Q9NSY1 whole entry, looked up): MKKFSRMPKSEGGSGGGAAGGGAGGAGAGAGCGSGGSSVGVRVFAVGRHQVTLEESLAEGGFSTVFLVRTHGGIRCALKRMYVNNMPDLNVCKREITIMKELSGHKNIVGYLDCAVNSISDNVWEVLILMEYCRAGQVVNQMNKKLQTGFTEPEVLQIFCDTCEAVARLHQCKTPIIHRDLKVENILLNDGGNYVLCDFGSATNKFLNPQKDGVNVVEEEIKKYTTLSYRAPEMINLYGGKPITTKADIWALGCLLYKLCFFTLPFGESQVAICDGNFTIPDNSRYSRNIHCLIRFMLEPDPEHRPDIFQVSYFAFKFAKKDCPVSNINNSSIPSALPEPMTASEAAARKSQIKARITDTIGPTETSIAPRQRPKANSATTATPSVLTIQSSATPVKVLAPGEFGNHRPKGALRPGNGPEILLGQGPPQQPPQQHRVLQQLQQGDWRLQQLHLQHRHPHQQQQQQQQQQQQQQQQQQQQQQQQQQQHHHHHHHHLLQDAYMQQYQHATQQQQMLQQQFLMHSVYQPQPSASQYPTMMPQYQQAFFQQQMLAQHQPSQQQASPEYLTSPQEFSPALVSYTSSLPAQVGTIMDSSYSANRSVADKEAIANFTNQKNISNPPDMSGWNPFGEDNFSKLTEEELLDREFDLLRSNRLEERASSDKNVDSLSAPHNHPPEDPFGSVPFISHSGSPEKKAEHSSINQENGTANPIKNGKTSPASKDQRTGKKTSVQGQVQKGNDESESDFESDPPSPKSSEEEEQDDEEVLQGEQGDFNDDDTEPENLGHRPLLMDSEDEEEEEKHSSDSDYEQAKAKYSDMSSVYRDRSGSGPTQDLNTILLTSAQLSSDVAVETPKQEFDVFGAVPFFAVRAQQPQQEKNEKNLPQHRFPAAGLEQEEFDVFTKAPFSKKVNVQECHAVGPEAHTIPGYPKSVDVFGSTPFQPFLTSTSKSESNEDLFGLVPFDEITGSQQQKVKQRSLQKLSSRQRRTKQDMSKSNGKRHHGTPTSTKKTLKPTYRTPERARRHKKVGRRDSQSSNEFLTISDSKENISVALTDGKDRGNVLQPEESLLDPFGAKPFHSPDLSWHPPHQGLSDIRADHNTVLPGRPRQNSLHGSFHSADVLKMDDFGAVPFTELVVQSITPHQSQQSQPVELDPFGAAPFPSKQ

[6] = molecular target: Hepatocyte growth factor receptor (Homo sapiens) (UniProt P08581); assay: Inhibition of c-MET (unknown origin) assessed as residual activity at 20 uM relative to control
[7] = molecular target: Serine/threonine-protein kinase B-raf (Homo sapiens) (UniProt P15056); assay: Inhibition of BRAF (unknown origin) assessed as residual activity at 10 uM relative to control
[8] = tested on: Receptor-type tyrosine-protein kinase FLT3 (Homo sapiens), P36888 [N841I]; assay: Inhibition of FLT3 N841I mutant (unknown origin) assessed as residual activity at 10 uM relative to control
[9] = tested on: Serine/threonine-protein kinase B-raf (Homo sapiens), P15056 [V600E]; assay: Inhibition of BRAF V600E mutant (unknown origin) assessed as residual activity at 10 uM relative to control
[10] = molecular target: Serine/threonine-protein kinase RIO2 (Homo sapiens) (UniProt Q9BVS4); assay: Inhibition of RIOK2 (unknown origin) assessed as residual activity at 10 uM relative to control
[11] = molecular target: Phosphatidylinositol 4-phosphate 3-kinase C2 domain-containing subunit beta (Homo sapiens) (UniProt O00750); assay: Inhibition of PIK3C2B (unknown origin) assessed as residual activity at 10 uM relative to control
[12] = molecular target: ALK tyrosine kinase receptor (Homo sapiens) (UniProt Q9UM73); assay: Inhibition of ALK (unknown origin) assessed as residual activity at 20 uM relative to control
Homo sapiens = species: Homo sapiens; assay: Inhibition of ULK (unknown origin) assessed as residual activity at 10 uM relative to control
[13] = molecular target: Tyrosine-protein kinase Blk (Homo sapiens) (UniProt P51451); assay: Inhibition of BLK (unknown origin) assessed as residual activity at 10 uM relative to control
[14] = molecular target: AP2-associated protein kinase 1 (Homo sapiens) (UniProt Q2M2I8); assay: Inhibition of AAK1 (unknown origin) assessed as residual activity at 10 uM relative to control
[15] = molecular target: Phosphatidylinositol 4,5-bisphosphate 3-kinase catalytic subunit delta isoform (Homo sapiens) (UniProt O00329); assay: Inhibition of PIK3CD (unknown origin) assessed as residual activity at 10 uM relative to control
[16] = molecular target: Atypical kinase COQ8A, mitochondrial (Homo sapiens) (UniProt Q8NI60); assay: Inhibition of ADCK3 (unknown origin) assessed as residual activity at 10 uM relative to control
Atypical kinase COQ8A, mitochondrial (Homo sapiens), sequence (Q8NI60 163-647 limits assumed): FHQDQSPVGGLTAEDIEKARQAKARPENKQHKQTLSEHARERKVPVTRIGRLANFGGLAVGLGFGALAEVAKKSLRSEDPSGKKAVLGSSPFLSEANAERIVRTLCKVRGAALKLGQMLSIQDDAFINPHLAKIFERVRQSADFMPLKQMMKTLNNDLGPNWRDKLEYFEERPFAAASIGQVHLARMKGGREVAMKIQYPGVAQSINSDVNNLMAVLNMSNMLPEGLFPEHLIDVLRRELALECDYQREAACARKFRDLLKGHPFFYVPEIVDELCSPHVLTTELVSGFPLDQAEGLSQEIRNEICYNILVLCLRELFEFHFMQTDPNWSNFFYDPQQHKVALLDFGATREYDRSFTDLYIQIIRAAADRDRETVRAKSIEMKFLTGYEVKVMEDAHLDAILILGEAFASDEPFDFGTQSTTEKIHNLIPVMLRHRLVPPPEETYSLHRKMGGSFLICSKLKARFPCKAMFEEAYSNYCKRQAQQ

[17] = molecular target: Mast/stem cell growth factor receptor Kit (Homo sapiens) (UniProt P10721); assay: Inhibition of KIT (unknown origin) assessed as residual activity at 10 uM relative to control
[18] = molecular target: Mitogen-activated protein kinase kinase kinase 20 (Homo sapiens) (UniProt Q9NYL2); assay: Inhibition of ZAK (unknown origin) assessed as residual activity at 10 uM relative to control
[19] = molecular target: Tyrosine-protein kinase HCK (Homo sapiens) (UniProt P08631); assay: Inhibition of HCK (unknown origin) assessed as residual activity at 10 uM relative to control
[20] = molecular target: Proto-oncogene tyrosine-protein kinase Src (Homo sapiens) (UniProt P12931); assay: Inhibition of SRC (unknown origin) assessed as residual activity at 10 uM relative to control
[21] = molecular target: Ephrin type-B receptor 6 (Homo sapiens) (UniProt O15197); assay: Inhibition of EPHB6 (unknown origin) assessed as residual activity at 10 uM relative to control
[22] = molecular target: Phosphatidylinositol 4,5-bisphosphate 3-kinase catalytic subunit beta isoform (Homo sapiens) (UniProt P42338); assay: Inhibition of PIK3CB (unknown origin) assessed as residual activity at 10 uM relative to control
[23] = molecular target: Leukocyte tyrosine kinase receptor (Homo sapiens) (UniProt P29376); assay: Inhibition of LTK (unknown origin) assessed as residual activity at 10 uM relative to control
[24] = molecular target: Tyrosine-protein kinase TXK (Homo sapiens) (UniProt P42681); assay: Inhibition of TXK (unknown origin) assessed as residual activity at 10 uM relative to control
[25] = molecular target: Serine/threonine-protein kinase PLK4 (Homo sapiens) (UniProt O00444); assay: Inhibition of PLK4 (unknown origin) assessed as residual activity at 10 uM relative to control
[26] = molecular target: Phosphatidylinositol 4,5-bisphosphate 3-kinase catalytic subunit alpha isoform (Homo sapiens) (UniProt P42336); assay: Inhibition of PIK3CA (unknown origin) assessed as residual activity at 10 uM relative to control
[27] = molecular target: Aurora kinase A (Homo sapiens) (UniProt O14965); assay: Inhibition of aurora A kinase (unknown origin) assessed as residual activity at 10 uM relative to control
[28] = tested on: Phosphatidylinositol 4,5-bisphosphate 3-kinase catalytic subunit alpha isoform (Homo sapiens), P42336 [E542K]; assay: Inhibition of PIK3CA E542K mutant (unknown origin) assessed as residual activity at 10 uM relative to control
[29] = molecular target: Tyrosine-protein kinase JAK2 (Homo sapiens) (UniProt O60674); assay: Inhibition of JAK2 (unknown origin) assessed as residual activity at 10 uM relative to control
Tyrosine-protein kinase JAK2 (Homo sapiens), sequence (O60674 whole entry): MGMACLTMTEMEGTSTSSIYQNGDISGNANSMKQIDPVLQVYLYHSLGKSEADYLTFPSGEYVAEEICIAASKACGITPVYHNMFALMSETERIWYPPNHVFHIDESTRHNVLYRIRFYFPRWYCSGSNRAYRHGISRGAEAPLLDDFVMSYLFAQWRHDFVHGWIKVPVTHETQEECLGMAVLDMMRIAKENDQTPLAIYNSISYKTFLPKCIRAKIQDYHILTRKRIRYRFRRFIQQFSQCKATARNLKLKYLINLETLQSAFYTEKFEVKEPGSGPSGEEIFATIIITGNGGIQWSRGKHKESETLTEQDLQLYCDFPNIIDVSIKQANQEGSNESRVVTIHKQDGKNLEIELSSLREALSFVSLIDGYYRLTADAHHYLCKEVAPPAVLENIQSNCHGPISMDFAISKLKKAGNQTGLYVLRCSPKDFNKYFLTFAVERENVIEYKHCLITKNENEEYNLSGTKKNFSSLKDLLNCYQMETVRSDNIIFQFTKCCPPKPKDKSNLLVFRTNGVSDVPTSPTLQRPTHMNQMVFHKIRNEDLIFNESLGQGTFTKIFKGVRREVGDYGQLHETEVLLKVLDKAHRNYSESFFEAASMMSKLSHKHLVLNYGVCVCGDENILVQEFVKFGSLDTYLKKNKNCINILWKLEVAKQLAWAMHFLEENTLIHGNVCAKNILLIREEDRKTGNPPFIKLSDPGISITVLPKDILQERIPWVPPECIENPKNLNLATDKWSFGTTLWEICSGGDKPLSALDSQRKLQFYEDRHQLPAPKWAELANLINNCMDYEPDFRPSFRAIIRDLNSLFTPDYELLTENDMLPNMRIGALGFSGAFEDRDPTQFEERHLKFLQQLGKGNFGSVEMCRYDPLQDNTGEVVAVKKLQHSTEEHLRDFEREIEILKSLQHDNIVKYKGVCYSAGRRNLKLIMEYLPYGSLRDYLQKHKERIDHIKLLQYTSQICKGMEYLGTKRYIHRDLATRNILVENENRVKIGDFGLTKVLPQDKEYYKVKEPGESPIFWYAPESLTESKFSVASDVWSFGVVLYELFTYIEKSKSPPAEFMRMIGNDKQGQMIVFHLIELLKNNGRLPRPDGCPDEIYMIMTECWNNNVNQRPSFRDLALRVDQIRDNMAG

Proto-oncogene tyrosine-protein kinase ROS, sequence (P08922 whole entry): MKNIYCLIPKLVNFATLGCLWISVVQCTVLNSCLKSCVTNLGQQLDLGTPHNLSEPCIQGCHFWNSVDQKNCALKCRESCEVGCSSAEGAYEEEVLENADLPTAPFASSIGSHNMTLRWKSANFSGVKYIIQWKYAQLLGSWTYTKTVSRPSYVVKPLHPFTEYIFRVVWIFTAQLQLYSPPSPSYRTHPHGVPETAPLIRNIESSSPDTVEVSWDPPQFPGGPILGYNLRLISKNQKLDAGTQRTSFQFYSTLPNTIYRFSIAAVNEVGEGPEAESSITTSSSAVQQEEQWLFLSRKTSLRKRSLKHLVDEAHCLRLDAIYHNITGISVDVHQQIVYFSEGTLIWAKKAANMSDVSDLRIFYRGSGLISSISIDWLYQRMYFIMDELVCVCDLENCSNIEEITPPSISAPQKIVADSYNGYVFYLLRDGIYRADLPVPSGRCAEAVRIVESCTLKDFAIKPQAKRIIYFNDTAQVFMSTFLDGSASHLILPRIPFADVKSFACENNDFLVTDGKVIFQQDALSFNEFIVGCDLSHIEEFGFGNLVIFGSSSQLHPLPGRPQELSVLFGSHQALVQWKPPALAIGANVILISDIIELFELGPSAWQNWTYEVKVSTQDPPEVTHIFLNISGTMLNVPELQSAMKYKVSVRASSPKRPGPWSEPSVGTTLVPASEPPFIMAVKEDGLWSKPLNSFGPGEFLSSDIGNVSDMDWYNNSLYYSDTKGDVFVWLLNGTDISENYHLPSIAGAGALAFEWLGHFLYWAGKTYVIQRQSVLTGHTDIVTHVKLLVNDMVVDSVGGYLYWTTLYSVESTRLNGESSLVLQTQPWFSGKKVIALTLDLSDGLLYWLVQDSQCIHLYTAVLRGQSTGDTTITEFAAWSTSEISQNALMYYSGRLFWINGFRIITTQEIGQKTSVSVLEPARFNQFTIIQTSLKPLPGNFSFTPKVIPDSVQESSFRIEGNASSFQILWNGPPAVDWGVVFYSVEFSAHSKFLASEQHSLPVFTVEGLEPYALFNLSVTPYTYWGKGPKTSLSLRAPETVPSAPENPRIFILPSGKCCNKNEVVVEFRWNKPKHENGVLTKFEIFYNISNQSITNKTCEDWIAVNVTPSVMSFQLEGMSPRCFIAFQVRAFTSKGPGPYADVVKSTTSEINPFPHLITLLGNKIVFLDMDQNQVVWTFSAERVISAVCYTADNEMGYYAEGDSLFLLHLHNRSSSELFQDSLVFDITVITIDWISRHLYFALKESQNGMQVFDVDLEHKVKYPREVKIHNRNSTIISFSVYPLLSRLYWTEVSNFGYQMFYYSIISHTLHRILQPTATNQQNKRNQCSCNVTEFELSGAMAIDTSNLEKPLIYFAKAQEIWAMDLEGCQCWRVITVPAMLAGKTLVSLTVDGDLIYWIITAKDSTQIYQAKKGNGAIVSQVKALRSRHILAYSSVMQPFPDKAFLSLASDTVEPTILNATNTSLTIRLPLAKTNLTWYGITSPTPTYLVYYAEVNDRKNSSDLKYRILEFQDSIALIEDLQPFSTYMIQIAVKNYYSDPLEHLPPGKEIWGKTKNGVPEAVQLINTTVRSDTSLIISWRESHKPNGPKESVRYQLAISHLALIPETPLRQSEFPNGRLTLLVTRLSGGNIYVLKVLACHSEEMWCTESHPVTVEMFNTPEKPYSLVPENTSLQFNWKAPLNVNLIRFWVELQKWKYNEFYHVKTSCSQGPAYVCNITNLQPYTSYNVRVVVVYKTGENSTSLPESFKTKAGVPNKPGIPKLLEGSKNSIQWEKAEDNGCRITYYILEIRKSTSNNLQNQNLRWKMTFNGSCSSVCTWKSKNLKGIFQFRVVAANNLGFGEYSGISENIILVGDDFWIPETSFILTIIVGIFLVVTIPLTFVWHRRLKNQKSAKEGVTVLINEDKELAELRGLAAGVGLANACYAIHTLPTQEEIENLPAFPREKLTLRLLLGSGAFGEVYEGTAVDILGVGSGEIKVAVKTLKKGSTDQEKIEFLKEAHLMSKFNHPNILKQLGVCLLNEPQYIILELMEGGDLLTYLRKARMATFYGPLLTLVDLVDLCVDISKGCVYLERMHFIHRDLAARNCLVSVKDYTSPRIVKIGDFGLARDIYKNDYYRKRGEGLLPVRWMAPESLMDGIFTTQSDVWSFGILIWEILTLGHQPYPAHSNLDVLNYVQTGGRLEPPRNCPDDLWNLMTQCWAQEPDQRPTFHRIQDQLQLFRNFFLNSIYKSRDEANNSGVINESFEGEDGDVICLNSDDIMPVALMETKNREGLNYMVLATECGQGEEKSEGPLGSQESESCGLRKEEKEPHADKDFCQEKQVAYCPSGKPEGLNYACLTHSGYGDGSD

An IC50 [1] of 104 nM was found for COc1cc(C)cc(-c2c(-c3cc(N4CCOCC4)nc(-c4cccnc4)n3)cnn2C)c1 in this work.
An IC50 [1] of 105 nM was found for Cc1cc(O)cc(-c2nn(C)cc2-c2cc(NC[C@H](C)O)nc(-c3cccnc3)n2)c1 in this work.
An IC50 [1] of 108 nM was found for COc1cc(C)cc(-c2nn(C)cc2-c2cc(N3CC(O)C3)nc(-c3cccnc3)n2)c1 in this work.
An IC50 [1] of 91.5 nM was found for Cc1cc(O)cc(-c2c(-c3cc(N4CCOCC4)nc(-c4cccnc4)n3)cnn2C)c1 in this work.
An IC50 [1] of 63.8 nM was found for COc1cc(C)cc(-c2nn(C)cc2-c2cc(NCCCCO)nc(-c3cccnc3)n2)c1 in this work.
An IC50 [1] of 86.5 nM was found for Cc1cc(O)cc(-c2nn(C)cc2-c2cc(N3CC(O)C3)nc(-c3cccnc3)n2)c1 in this work.
An IC50 [1] of 138 nM was found for COc1cc(C)cc(-c2c(-c3cc(NCCCCO)nc(-c4cccnc4)n3)cnn2C)c1 in this work.
An IC50 [1] of 241 nM was found for COc1cc(C)cc(-c2nn(C)cc2-c2cc(NC[C@H](C)O)nc(-c3cccnc3)n2)c1 in this work.
An IC50 [1] of 139 nM was found for Cc1cc(O)cc(-c2c(-c3cc(NC[C@H](C)O)nc(-c4cccnc4)n3)cnn2C)c1 in this work.
An IC50 [1] of 74.2 nM was found for COc1cc(C)cc(-c2c(-c3cc(N4CC(O)C4)nc(-c4cccnc4)n3)cnn2C)c1 in this work.
An IC50 [1] of 25.4 nM was found for Cc1cc(O)cc(-c2c(-c3cc(NCCCCO)nc(-c4cccnc4)n3)cnn2C)c1 in this work.
An Activity [2] of 3%, an Activity [3] of 9.2% and an Activity [4] of 2.6% were found for Cc1cc(O)cc(-c2nn(C)cc2-c2cc(N3CCOCC3)nc(-c3cccnc3)n2)c1 in this work. The Activity [5] was 11%, the Activity [6] was 51% and the IC50 [1] was 13.6 nM. The Activity [7] was 30%, the Activity [8] was 3.3% and the Activity [9] was 18%. It also gave an Activity [10] of 10%, an Activity [11] of 4% and an Activity [12] of 31%. It also gave an Activity (Homo sapiens) of 71%, an Activity [13] of 20% and an Activity [14] of 18%. It also gave an Activity [15] of 4.4%, an Activity [16] of 15% and an Activity [17] of 20%. For the same compound, the Activity [18] was 92%, the Activity [19] was 28% and the Activity [20] was 25%. The Activity [21] was 4.2%, the Activity [22] was 7.2% and the Activity [23] was 17%. It also gave an Activity [24] of 9.6%, an Activity [25] of 6.8% and an Activity [26] of 13%. The Activity [27] was 31%, the Activity [28] was 14% and the Activity [29] was 3%.
An IC50 [1] of 133 nM was found for Cc1cc(O)cc(-c2nn(C)cc2-c2cc(NCCCCO)nc(-c3cccnc3)n2)c1 in this work.
An IC50 [1] of 283 nM was found for COc1cc(C)cc(-c2c(-c3cc(NC[C@H](C)O)nc(-c4cccnc4)n3)cnn2C)c1 in this work.
An IC50 [1] of 59.1 nM was found for COc1cc(C)cc(-c2nn(C)cc2-c2cc(N3CCOCC3)nc(-c3cccnc3)n2)c1 in this work.
An IC50 [1] of 56.6 nM was found for Cc1cc(O)cc(-c2c(-c3cc(N4CC(O)C4)nc(-c4cccnc4)n3)cnn2C)c1 in this work.
